Where a name gives a salt, the structure may show the parent alone.
Tests used:
mice [1] = assay: Antitussive test of Naringenin, spray by high concentration ammonia (Example 30); type: in vivo; details: for R Value: EDT50 of the treatment / EDT50 of the control x 100%; for EDT50: mice, oral, dose 0.2 (mg/20g), spray one hour later
Text: 1. Animal: 120 healthy male mice weighing 19.5-22.1g was grouped into 8 groups random after labeled, which was selected from 130 male mice weighing 19.3-22.6g. Every group was 15 mice. Eight group were set including negative control group, positive control group, high dose group of Naringenin, middle dose group of Naringenin, low dose group of Naringenin, high dose group of sodium salt of Naringenin, middle dose group of sodium salt of Naringenin, low dose group of sodium salt of Naringenin.
• 1) Blank control group: physiological saline, 0.9% NaCl; • 2) Positive control group: 30mg Dextromethorphan Hydrobromide was dissolve into 20 ml physiological saline and the sample concentration was 1.5 mg/ml to obtain the solution for positive control. • 3) low dose group of Naringenin: weighting out the appropriate amount of Naringenin and dissolving it in physiological saline, then the sample concentration was 0.5 mg/ml. • 4) middle dose group of Naringenin: weighting out the appropriate amount of Naringenin and dissolving it in physiological saline, then the sample concentration was 1.5mg/ml. • 5) high dose group of Naringenin: weighting out the appropriate amount of Naringenin and dissolving it in physiological saline, then the sample concentration was 4.5 mg/ml. • 6) low dose group of sodium salt of Naringenin: weighting out the appropriate amount of sodium salt of Naringenin and dissolving it in physiological saline, then the sample concentration was 0.5 mg/ml. • 7) middle dose group of sodium salt of Naringenin: weighting out the appropriate amount of sodium salt of Naringenin and dissolving it in physiological saline, then the sample concentration was 1.5 mg/ml. • 8) high dose group of sodium salt of Naringenin: weighting out the appropriate amount of sodium salt of Naringenin and dissolving it in physiological saline, then the sample concentration was 4.5 mg/ml.
Animals were oral administered, and were sprayed one hour later. After the spray took out the animals and observed the tussive action. Observed the time of tussis in one minutes, if it appeared typical tussis three times in one minutes(shrinking the abdomen muscle or shrinking chest, puffing mouth at the same time, sometimes appearing tussive sound), we consider it "appearing tussis", otherwise "no tussis".
We calculated the spraying time that half of mice were tusisive by sequential method. And calculated the R, the drug was provided with effect of relieve a cough if R>130%. The drug was provided with remarkable effect of relieve a cough if R>150%. Underside is expressions: R=(EDT50 of the treatment)/(EDT50 of the control)× 100% [formula] EDT50=log^-1c/n ('n' is the number of animal, 'c' is the sum of 'rx' value, 'r' is the number of animal in every group, 'x' is the logarithm of dose(namely spray time).)

mice [2] = assay: Dispel phlegm test of Naringenin, Phenol Red excretion in trachea (Example 31); type: in vivo; details: for Dispel phlegm ratio: group given drug / blank control group x 100%; for Excretion quantity of Phenol Red / Rectified excretion quantity of Phenol Red: mice, oral, X±S; for Rectified excretion quantity of Phenol Red: excretion quantity / weight of animal
Text: • 1. Animal: 80 healthy female mice weighing 18.5-22.0g was grouped into 8 groups random after labeled, which was selected from 90 female mice weighing 18.0-22.1g. Every group was 10 mice. Eight groups were set including negative control group, positive control group, high dose group of Naringenin, middle dose group of Naringenin, low dose group of Naringenin, high dose group of sodium salt of Naringenin, middle dose group of sodium salt of Naringenin, low dose group of sodium salt of Naringenin. […] Sample source and preparation • 1) Blank control group: physiological saline, 0.9% NaCl; • 2) Positive control group: 0.2g Tankejing was dissolve into 10 ml 0.9% NaCl and the sample concentration was 20 mg/ml to obtain the solution for positive control. • 3) low dose group of Naringenin: 0.5 mg/ml solution of Naringenin was prepared by weighting out the appropriate amount of 5 mg Naringenin and dissolving it by ultrasonication in 10 ml physiological saline. • 4) middle dose group of Naringenin: 1.5 mg/ml solution of Naringenin was prepared by weighting out the appropriate amount of 15 mg Naringenin and dissolving it by ultrasonication in 10 ml physiological saline. • 5) high dose group of Naringenin: 4.5 mg/ml solution of Naringenin was prepared by weighting out the appropriate amount of 45 mg Naringenin and dissolving it by ultrasonication in 10 ml physiological saline. • 6) low dose group of sodium salt of Naringenin: 0.5 mg/ml solution of sodium salt of Naringenin was prepared by weighting out the appropriate amount of 5 mg sodium salt of Naringenin and dissolving it by ultrasonication in 10 ml physiological saline. • 7) middle dose group of sodium salt of Naringenin: 1.5 mg/ml solution of sodium salt of Naringenin was prepared by weighting out the appropriate amount of 15 mg sodium salt of Naringenin and dissolving it by ultrasonication in 10 ml physiological saline. • 8) high dose group of sodium salt of Naringenin: 4.5 mg/ml solution of sodium salt of Naringenin was prepared by weighting out the appropriate amount of 45 mg sodium salt of Naringenin and dissolving it by ultrasonication in 10 ml physiological saline. • 3. Experimental Method: • 1) preparations of Phenol Red calibration standard: 12.5 ng/ml solution of Phenol Red was prepared by weighting out the appropriate amount of Phenol Red and dissolving it by ultrasonication in 5% NaHCO3. The series solution including 6.25ng/ml, 3.125ng/ml, 1.5625 ng/ml, 0.7813 ng/ml, 0.3906 ng/ml, 0.1953 ng/ml, 0.0977 ng/ml, 0.0488 ng/ml was prepared by diluting, which was detected by ultraviolet spectrometer. The calibration curve was calculated by concentration of Phenol Red as y-axis and OD value as x-axis. And the excretion account of Phenol Red in mice was quantitated by calibration curve. • 2) Animals were fasted for 12 hr before dosing. • 3) Animals were oral administered with labeled number, each animal was administered with 3 min and each group was accomplished in 30 min. • 4) After administered 30 min, every animal was injected 2 ml 5% Phenol Red solution via celiac injection. The time of every animal was 3 min. • 5) Every animal was executed with 3 min interval after celiac injection 30 min, and animal trachea was peeled off with forceps after neck skin sniped, which was riveted on operating table. • 6) plasma and Phenol Red adhered to trachea ektexine was sweeped by 0.9% NaCl solution with an injector. And filter paper was used to blot up the solution. • 7) Scissors cut down the animal trachea including thyroid cartilage and trachea back-end. • 8) The trachea was set in test tube with 1.5 ml 5% NaHCO3. • 9) The experiment of every animal was completed in 3 min. […]

O=C1CC(c2ccc(O)cc2)Oc2cc(O)cc(O)c21 (stereo not drawn) [Naringenin, 4', 5, 7 -trihydroxyflavanone]
R Value (mice [1]; sample concentration 0.5 mg/ml): 131.85%
R Value (mice [1]; sample concentration 1.5 mg/ml): 169.85%
R Value (mice [1]; sample concentration 4.5 mg/ml): 171.23%
time of appearing tussis (mice [1]; compared with Dextromethorphan Hydrobromide (positive control group)): statistical significance prolonging the time
EDT50 (mice [1]; sample concentration 0.5 mg/ml): 51.29 s
EDT50 (mice [1]; sample concentration 1.5 mg/ml): 66.07 s
EDT50 (mice [1]; sample concentration 4.5 mg/ml): 66.61 s
Effect of relieving cough (mice [1]; sample concentration 0.5 mg/ml): effect (the drug was provided with effect of relieve a cough if R>130%)
Effect of relieving cough (mice [1]; sample concentration 1.5 mg/ml): remarkably effect (The drug was provided with remarkable effect of relieve a cough if R>150%)
Effect of relieving cough (mice [1]; sample concentration 4.5 mg/ml): remarkably effect (The drug was provided with remarkable effect of relieve a cough if R>150%)
Dispel phlegm ratio (mice [2]; 5 mg/kg): 146.13%
Dispel phlegm ratio (mice [2]; 15 mg/kg): 159.97%
Dispel phlegm ratio (mice [2]; 45 mg/kg): 219.85%
dispel phlegm effect (mice [2]; high dose group compared to positive control group of Tankejing): statistical better than Tankejing
Excretion quantity of Phenol Red (mice [2]; 5 mg/kg): 1.2757 ± 0.4020 ng
Rectified excretion quantity of Phenol Red (mice [2]; 5 mg/kg): 68.2832 ± 23.6102 ng/kg
Excretion quantity of Phenol Red (mice [2]; 15 mg/kg): 1.3523 ± 0.9303 ng
Rectified excretion quantity of Phenol Red (mice [2]; 15 mg/kg): 74.7504 ± 57.2020 ng/kg
Excretion quantity of Phenol Red (mice [2]; 45 mg/kg): 1.9257 ± 0.6713 ng
Rectified excretion quantity of Phenol Red (mice [2]; 45 mg/kg): 102.7325 ± 41.0313 ng/kg
exudates increase of mice trachea (mice [2]; three doses (low, middle, high), versus negative control group): statistical significance stimulate the exudates increase of mice trachea

O=C1C[C@@H](c2ccc(O)cc2)Oc2cc(O)cc(O)c21 [sodium salt of Naringenin]
R Value (mice [1]; sample concentration 0.5 mg/ml): 142.3%
R Value (mice [1]; sample concentration 1.5 mg/ml): 178.6%
R Value (mice [1]; sample concentration 4.5 mg/ml): 189.1%
EDT50 (mice [1]; sample concentration 0.5 mg/ml): 55.35 s
EDT50 (mice [1]; sample concentration 1.5 mg/ml): 69.48 s
EDT50 (mice [1]; sample concentration 4.5 mg/ml): 73.56 s
Effect of relieving cough (mice [1]; sample concentration 0.5 mg/ml): effect (the drug was provided with effect of relieve a cough if R>130%)
Effect of relieving cough (mice [1]; sample concentration 1.5 mg/ml): remarkably effect (The drug was provided with remarkable effect of relieve a cough if R>150%)
Effect of relieving cough (mice [1]; sample concentration 4.5 mg/ml): remarkably effect (The drug was provided with remarkable effect of relieve a cough if R>150%)
Dispel phlegm ratio (mice [2]; 5 mg/kg): 148.72%
Dispel phlegm ratio (mice [2]; 15 mg/kg): 162.38%
Dispel phlegm ratio (mice [2]; 45 mg/kg): 224.93%
Excretion quantity of Phenol Red (mice [2]; 5 mg/kg): 1.3029 ± 0.3069 ng
Rectified excretion quantity of Phenol Red (mice [2]; 5 mg/kg): 69.4942 ± 16.3724 ng/kg
Excretion quantity of Phenol Red (mice [2]; 15 mg/kg): 1.4225 ± 0.7361 ng
Rectified excretion quantity of Phenol Red (mice [2]; 15 mg/kg): 75.8773 ± 39.2651 ng/kg
Excretion quantity of Phenol Red (mice [2]; 45 mg/kg): 1.9705 ± 0.6898 ng
Rectified excretion quantity of Phenol Red (mice [2]; 45 mg/kg): 105.1057 ± 36.7945 ng/kg

— patent EP1591123A1, “USES OF NARINGENIN, NARINGIN AND SALTS THEREOF AS EXPECTORANTS IN THE TREATMENT OF COUGH, AND COMPOSITIONS THEREOF” (Su, Wei-wei, priority 2003, dated 2004)
